# Test results from PubChem BioAssay AID1996.
# Conditions: buffer; pH 7.4; 200.0 µM
row,SMILES,solubility kinetic [µg/mL]
1,CCOc1ccc(NC(=O)NCc2ccccn2)cc1,35.6
2,CC1CCC(NC(=O)Cn2cnc3sccc3c2=O)CC1 (stereo not given),> 45.8
3,O=C(Cc1ncon1)Nc1ccc(F)c(F)c1F,38.1
4,Cc1cccc(C(=O)OCC(=O)NCC2COc3ccccc3O2)c1 (stereo not given),5.9
5,O=C(NCC(c1ccc(F)cc1)N1CCOCC1)c1ccc(-c2ccccc2)cc1 (stereo not given),3.2
6,COC(=O)c1ccc2c(c1)C(C)(C)C(/C=C/c1ccc(O)cc1)=[N+]2C.[I-],41.6
7,CC(C)[C@H](NC(=O)N1CC(=O)Nc2ccccc21)C(=O)N1CCC[C@@H]1C(=O)O,> 58.3
8,COc1ccc2oc(=O)c(C(=O)NCc3ccc(C)cc3)cc2c1,< 0.7
9,COc1ccc2c(c1)C1=C(CC2)C(c2ccc(C)cc2)NC(=S)N1 (stereo not given),10.5
10,Cc1ccc(NC(=O)COC(=O)Cn2cnc3c2c(=O)n(C)c(=O)n3C)cc1,> 57.8
11,CCOC(=O)c1c(C)oc2c1c(C=NCCC(=O)O)c(O)c1ccccc12,< 0.8
12,O=c1[nH]c(NCCO)nnc1Cc1ccccc1,> 36.9
13,O=S(=O)(NCc1cccs1)c1ccc(Cl)s1,40.5
14,CC(Cc1ccccc1)N1Cc2ccccc2C1 (stereo not given),35.3
15,CSc1ccccc1NC(=O)c1cc(Cl)sc1Cl,1.4
16,O=C(NCC(c1ccco1)N1CCCC1)c1sc2cc(F)ccc2c1Cl (stereo not given),7.5
17,Cc1cccc(N2CCN(C(=O)c3cccc(S(=O)(=O)N4CCCCC4)c3)CC2)c1C,2.9
18,N#CC1=C(N)N2C(=C(C#N)C13CCCC3)Nc1ccccc12,36.9
19,CCc1ccccc1NC(=O)c1cc(-c2ccc(OC)cc2)on1,< 0.3
20,CCOC(=O)c1nc(-c2ccc(OC)c(OC)c2)no1,40.8

row,SMILES,solubility kinetic [µg/mL]
1,Nc1ccc(Sc2nc3ccccc3[nH]2)cc1,> 36.2
2,Cc1noc(NS(=O)(=O)c2ccc(NC(=O)c3cccc(S(=O)(=O)Nc4ccccc4F)c3)cc2)c1C,71.3
3,COc1ccc(C2=NOC(C(=O)NCc3cccnc3)C2)cc1 (stereo not given),> 46.7
4,Cc1ccc(NC(=O)NCC2CC2(Cl)Cl)cc1 (stereo not given),9.1
5,COc1ccccc1NC(=O)c1cnc(SC)nc1,> 41.3
6,O=S(=O)(NCC1CCCO1)c1ccc(Cl)nc1 (stereo not given),> 41.5
7,CCOC(=O)c1sc(NC(=O)OC)c(C(=O)OC)c1C,< 0.6
8,CN(C)C(=O)c1ccccc1NC(=O)Cc1cccc2ccccc12,49.8
9,CSc1sc(C(=O)N(C)C)c2c1S(=O)(=O)N(C)c1ccccc1-2,> 55.3
10,N/C(CS(=O)(=O)c1ccccn1)=N\OC(=O)c1ccccc1Cl,46.5
11,c1ccc(Oc2ncnc3sccc23)cc1,25.1
12,NS(=O)(=O)c1ccc(NC(=O)/C=C/c2ccco2)cc1,36.3
13,Cc1ccc(C)c(-c2csc(-c3cccnc3)n2)c1,9.9
14,COc1cccc2c(=O)n(CC(=O)NCCc3ccccc3)ccc12,1.6
15,O=C(COC(=O)c1ccco1)NCCc1ccc(Cl)cc1,> 46.2
16,O=c1cc(COc2ncnc3ccccc23)nc2sccn12,> 46.5
17,O=C(N/N=C/c1ccccc1O)c1ccncc1,> 36.2
18,COC(CNS(=O)(=O)c1cccc2nonc12)OC,> 43.1
19,Cc1ccc(C(O)P(=O)(OC(C)C)c2ccc(N(C)C)cc2)cc1 (stereo not given),> 52.1
20,CCN(CC(=O)Nc1ccc2c(c1)OCCO2)C(=O)c1ccccc1Br,> 62.9

row,SMILES,solubility kinetic [µg/mL]
1,COC(=O)c1ccc(CNC(=O)COC(=O)/C=C/c2cc(OC)c(OC)c(OC)c2)cc1,4.6
2,O=[N+]([O-])c1ccc(Sc2ccc(F)cc2)nc1,0.7
3,COCCn1c(C)cc(C(=O)CSc2nc(C)c(C)c(C)n2)c1C,45.3
4,O=C(CN1CCOCC1)NNC(=S)Nc1ccc(Cl)cc1,> 49.3
5,Cc1ccc(S(=O)(=O)N2CCCC(C(=O)NCC3CCCO3)C2)cc1 (stereo not given),> 55
6,CCN1C(=O)C(=Cc2cc(C)n(C3CC3)c2C)C(=O)N(CC)C1=S,2.8
7,O=C(Nc1cccc(O)c1)C1CC(c2cccc(Br)c2)=NO1 (stereo not given),28
8,CC(=O)O.O=S(=O)(CCc1ccncc1)C1Cc2cccc3cccc1c23 (stereo not given),49.4
9,Cc1ccc(C(=O)NCCCNC(=O)c2ccco2)cn1,34.3
10,COc1ccc(Oc2cccc(Cl)c2CNC(=O)CCC(=O)O)cc1,49.5
11,Cc1ccc(S(=O)(=O)c2c(C)cc(C)[nH]c2=O)cc1,> 41.6
12,COc1ccc(C(C)(C)C)cc1NC(=O)C1=CC=CN2CCS(=O)(=O)N=C12,1.7
13,CCC1CCCCN1C(=O)CSc1nc(N)cc(=O)[nH]1 (stereo not given),42.2
14,O=C(Nc1ccncc1)c1ccc([N+](=O)[O-])cc1Cl,17.6
15,Cc1cccc(NC(=O)c2cc3ccccc3oc2=O)c1,< 0.6
16,CCOc1ccc(N2C(=O)CC(Sc3nc(O)c(CC)c(=O)[nH]3)C2=O)cc1 (stereo not given),> 58.4
17,CC1CN(C2=CC(=O)CCC2)CC(C)O1 (stereo not given),> 31.4
18,O=C(NCC1CCCCC1)c1cc2ccccc2cc1O,9.7
19,S=C(Nc1ccccc1)Nc1ccccc1Br,16.4
20,Cc1ccc(NC(=O)CN2C(=O)c3ccccc3C2=O)c(C)c1,4.4
